From patent publication US20090239926A1, “METHODS FOR THE TREATMENT OF PSORIASIS OR PSORIATIC ARTHRITIS USING CYCLOPROPYL-N-CARBOXAMIDE” (priority 2008, published 2009)
pIC50: −log10 of the molar value. Values joined by “and” are separate entries in the source; they are usually repeats but may differ in a detail not shown here. Identical values can stand only once.

Legend:
[1] = test system: PDE4 enzyme purified from U937 human monocytic cells; experiment: PDE4 inhibition; type: biochemical
Method: PDE4 enzyme was purified from U937 human monocytic cells by gel filtration chromatography (Muller et al. 1998, Bioorg. & Med. Chem. Lett. 1998. 8 (19):2669-74). Phosphodiesterase reactions were carried out in 50 MM Tris HCl pH 7.5, 5 mM MgCl2, 1 μM cAMP, 10 nM [^3H]-cAMP for 30 min at 30, terminated by boiling, treated with 1 mg/ml snake venom, and separated using AG-lXS ion exchange resin (BioRad).
(§1) The specificity of Compound A for PDE4 was assessed by testing at a single concentration (10 μM) against bovine PDE1, human PDE2, PDE3 and PDE5 from human platelets, and PDE6 from bovine retinal rod outer segments.

[2] = test system: mAB/LPS-induced experimental arthritis in male BALB/c mice; experiment: mAb/LPS-induced mice arthritis model; type: in vivo
Method: Treatment Regimen: Compound A was administered by oral gavage (PO), using a suitable stainless steel feeding needle. Enbrel (Reference Item) was administrated by intraperitoneal (IP) injections. Compound A was first administered on study Day 3 (one hour prior to the single LPS injection) and thereafter on Days 4, 5, 6, 7, 8, 9, 10, 11, 12 and 13 (total of 11 successive treatment days) at 1, 5 and 25 mg/kg once daily. Compound A treated groups comprised n=8 BALB/c male mice per dosing group. In addition, two equally sized groups were treated with either Enbrel (5 mg/kg/day, Reference Item), or a solution of 0.5% Na CMC/0.25% Tween 80 (PO, 5 ml/kg, Vehicle Control).
Arthritis Reactions: Both hind paws (left and right) of each animal were examined for signs of arthritogenic responses prior to arthritis induction (Day 0) and thereafter on study days 4, 5, 6, 7, 9, 11 & 14 as selected by the Sponsor. Arthritis reactions were scored and recorded according to a 0-4 scale in ascending order of severity (based on Morwell MD Biosciences Inc. brochure) as shown in Table 1.
Measurements of Experimental Arthritis: Hind paw thickness was determined on eight days using a Mitutoyo Electronic Digital Caliper (on Days 0, 4, 5, 6, 7, 9, 11 and 14) and presented as mean group values of the average for both left and right hind paws.

bovine PDE1 = experiment: Specificity: PDE1; type: biochemical; conditions: at 10 μM
Method: as §1

[3] = target: T1, PDE6 from bovine retinal rod outer segments (Bos taurus, UniProt P11541+P23439); experiment: Specificity: PDE6; type: biochemical
T1 construct: PDE6 from bovine retinal rod outer segments; from tissue; host or cells: bovine retinal rod outer segments
T1 sequence (P11541 2-856 limits assumed): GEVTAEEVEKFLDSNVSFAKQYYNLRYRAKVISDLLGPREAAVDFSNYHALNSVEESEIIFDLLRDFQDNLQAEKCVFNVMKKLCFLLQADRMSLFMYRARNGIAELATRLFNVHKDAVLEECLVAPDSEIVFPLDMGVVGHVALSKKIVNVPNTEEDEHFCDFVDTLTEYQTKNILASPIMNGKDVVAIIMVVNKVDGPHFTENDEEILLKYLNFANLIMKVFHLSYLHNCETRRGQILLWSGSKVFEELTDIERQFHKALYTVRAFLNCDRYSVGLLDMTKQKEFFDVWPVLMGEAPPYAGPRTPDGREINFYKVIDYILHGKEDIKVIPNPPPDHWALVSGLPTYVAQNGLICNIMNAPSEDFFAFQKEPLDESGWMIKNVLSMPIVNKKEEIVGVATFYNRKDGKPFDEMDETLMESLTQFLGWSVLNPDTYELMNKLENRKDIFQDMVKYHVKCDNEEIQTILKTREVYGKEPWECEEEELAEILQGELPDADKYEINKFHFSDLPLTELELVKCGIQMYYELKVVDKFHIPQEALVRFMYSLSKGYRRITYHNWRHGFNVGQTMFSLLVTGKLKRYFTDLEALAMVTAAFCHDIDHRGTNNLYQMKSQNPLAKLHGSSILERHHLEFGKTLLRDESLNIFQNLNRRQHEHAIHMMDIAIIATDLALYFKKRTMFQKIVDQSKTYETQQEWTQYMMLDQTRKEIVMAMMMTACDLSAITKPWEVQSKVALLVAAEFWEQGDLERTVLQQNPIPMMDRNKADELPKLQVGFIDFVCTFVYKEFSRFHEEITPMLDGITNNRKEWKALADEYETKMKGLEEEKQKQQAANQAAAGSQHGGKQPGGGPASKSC
T1 sequence (P23439 2-850 limits assumed): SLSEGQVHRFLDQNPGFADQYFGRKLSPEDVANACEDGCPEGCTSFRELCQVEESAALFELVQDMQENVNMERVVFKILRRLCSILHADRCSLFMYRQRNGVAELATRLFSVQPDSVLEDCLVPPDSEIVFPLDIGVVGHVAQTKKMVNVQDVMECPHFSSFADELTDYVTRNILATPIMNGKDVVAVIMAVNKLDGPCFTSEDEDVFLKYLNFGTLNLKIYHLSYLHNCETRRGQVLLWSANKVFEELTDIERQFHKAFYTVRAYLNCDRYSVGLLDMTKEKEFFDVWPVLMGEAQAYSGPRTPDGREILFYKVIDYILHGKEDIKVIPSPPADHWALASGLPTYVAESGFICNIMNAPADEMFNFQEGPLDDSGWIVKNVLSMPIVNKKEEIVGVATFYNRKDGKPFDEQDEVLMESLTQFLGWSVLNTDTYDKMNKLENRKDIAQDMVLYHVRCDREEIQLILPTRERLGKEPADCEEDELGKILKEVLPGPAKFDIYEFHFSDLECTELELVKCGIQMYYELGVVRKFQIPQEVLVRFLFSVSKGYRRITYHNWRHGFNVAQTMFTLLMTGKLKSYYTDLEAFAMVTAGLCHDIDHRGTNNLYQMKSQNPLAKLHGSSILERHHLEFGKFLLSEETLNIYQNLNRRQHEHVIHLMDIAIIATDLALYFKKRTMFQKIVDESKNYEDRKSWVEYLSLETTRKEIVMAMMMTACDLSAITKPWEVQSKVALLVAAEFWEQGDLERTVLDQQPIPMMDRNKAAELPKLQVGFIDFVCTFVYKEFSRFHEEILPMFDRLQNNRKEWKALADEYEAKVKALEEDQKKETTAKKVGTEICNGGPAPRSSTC
Method: as §1

[4] = test system: CD18 expression on neutrophils; experiment: fMLF-induced neutrophil CD18 expression; type: cell-based; conditions: Homo sapiens, 0.5 h, 30 nM fMLF, 30 minutes, flow cytometry
Method: (§2) CD18/CD11b (Mac-1) expression on neutrophils was measured with the following modifications. (Derian, C. K., et al., J Immunol, 1995. 154(1): 308-17). Neutrophils were isolated as described above, then resuspended in complete medium at 1×10^6 cells/ml, pretreated with Compound A at 10, 1, 0.1, 0.01, and 0 μM in duplicate at a final DMSO concentration of 0.1% for 10 minutes at 37° C. 5% CO2. Cells were then stimulated with 30 nM fMLF for 30 minutes and then chilled to 4° C. Cells were treated with rabbit IgG (Jackson ImmunoResearch Labs, West Grove, Pa., USA) (10 μg/1×10^6 cells) to block Fc receptors, stained with CD18-FITC and CD11b-PE (Becton Dickinson), and analyzed by flow cytometry on a FACSCalibur. CD18/CD11b expression (mean fluorescence) in the absence of stimulation was subtracted from all samples to obtain inhibition curves and calculate IC50.

[5] = test system: CD11b expression on neutrophils; experiment: fMLF-induced neutrophil CD11b expression; type: cell-based; conditions: Homo sapiens, 0.5 h, 30 nM fMLF, 30 minutes, flow cytometry
Method: as §2

[6] = test system: LPS-induced serum TNF-α in female BALB/c mice; experiment: Mouse LPS-induced serum TNF-α production; type: in vivo; conditions: po
Method: Mouse LPS-induced serum TNF-α production: Compound A was administered to female BALB/c mice orally by gavage two hours prior to LPS challenge. Blood was drawn 1.5 hours after LPS challenge, and serum TNF-α was measured as described above.

[7] = Compound A 1 mg/kg/day PO, Day 0 (prior to arthritis induction)
[8] = Compound A 1 mg/kg/day PO, Day 4
[9] = Compound A 1 mg/kg/day PO, Day 5
[10] = Compound A 1 mg/kg/day PO, Day 6
[11] = Compound A 1 mg/kg/day PO, Day 7
[12] = Compound A 1 mg/kg/day PO, Day 9
[13] = Compound A 1 mg/kg/day PO, Day 11
[14] = Compound A 1 mg/kg/day PO, Day 14
[15] = Compound A 5 mg/kg/day PO, Day 0 (prior to arthritis induction)
[16] = Compound A 5 mg/kg/day PO, Day 4
[17] = Compound A 5 mg/kg/day PO, Day 5
[18] = Compound A 5 mg/kg/day PO, Day 6
[19] = Compound A 5 mg/kg/day PO, Day 7
[20] = Compound A 5 mg/kg/day PO, Day 9
[21] = Compound A 5 mg/kg/day PO, Day 11
[22] = Compound A 5 mg/kg/day PO, Day 14
[23] = Compound A 25 mg/kg/day PO, Day 0 (prior to arthritis induction)
[24] = Compound A 25 mg/kg/day PO, Day 4
[25] = Compound A 25 mg/kg/day PO, Day 5
[26] = Compound A 25 mg/kg/day PO, Day 6
[27] = Compound A 25 mg/kg/day PO, Day 7

With CCOc1cc([C@@H](CS(C)(=O)=O)N2Cc3cccc(NC(=O)C4CC4)c3C2=O)ccc1OC [Compound A, cyclopropyl-N-{2-[(1S)-1-(3-ethoxy-4-methoxyphenyl)-2-(methylsulfonyl)ethyl]-3-oxoisoindoline-4-yl}carboxamide] the pIC50 ([1]; 1 μM cAMP) was 7.00, the “PDE4 IC50 (from U937 cells)” value ([1]; 1 μM cAMP) was 0.05 µg/mL and the PDE4 % inhibition ([1]; at 10 μM) was 95%. For the same molecule, the “Arthritis Scoring, mean of both hind paws (0-4 scale)” value (“Arthritis Scoring, mean” below) [2, 7] was 0, the “Hind Paws Thickness, group mean” value [2, 7] was 2.2 mm and the “Arthritis Scoring, mean” value [2, 8] was 0. The “Hind Paws Thickness, group mean” value [2, 8] was 2.2 mm, the “Percentage Change in Hind Paw Thickness vs. Study Commencement (Day 0), group mean” value (from here on “Percentage Change”) [2, 8] was 1% and the “Arthritis Scoring, mean” value [2, 9] was 1. The “Hind Paws Thickness, group mean” value [2, 9] was 2.4 mm, the “Percentage Change” value [2, 9] was 8% and the “Arthritis Scoring, mean” value [2, 10] was 2. The “Hind Paws Thickness, group mean” value [2, 10] was 2.7 mm, the “Percentage Change” value [2, 10] was 24% and the “Arthritis Scoring, mean” value [2, 11] was 2. For the same molecule, the “Hind Paws Thickness, group mean” value [2, 11] was 2.8 mm, the “Percentage Change” value [2, 11] was 27% and the “Arthritis Scoring, mean” value [2, 12] was 2. The “Hind Paws Thickness, group mean” value [2, 12] was 2.7 mm, the “Percentage Change” value [2, 12] was 23% and the “Arthritis Scoring, mean” value [2, 13] was 1. The “Percentage Change” value [2, 13] was 13%, the “Arthritis Scoring, mean” value [2, 14] was 1 and the “Hind Paws Thickness, group mean” value [2, 14] was 2.4 mm. For the same molecule, the “Percentage Change” value [2, 14] was 7%, the “Arthritis Scoring, mean” value [2, 15] was 0 and the “Hind Paws Thickness, group mean” value [2, 15] was 2.2 mm. For the same molecule, the “Arthritis Scoring, mean” value [2, 16] was 0, the “Hind Paws Thickness, group mean” value [2, 16] was 2.2 mm and the “Percentage Change” value [2, 16] was 1%. The “Arthritis Scoring, mean” value [2, 17] was 1, the “Hind Paws Thickness, group mean” value [2, 17] was 2.5 mm and the “Percentage Change” value [2, 17] was 12%. For the same molecule, the “Arthritis Scoring, mean” value [2, 18] was 2, the “Hind Paws Thickness, group mean” value [2, 18] was 2.8 mm and the “Percentage Change” value [2, 18] was 30%. The “Arthritis Scoring, mean” value [2, 19] was 2, the “Hind Paws Thickness, group mean” value [2, 19] was 2.8 mm and the “Percentage Change” value [2, 19] was 30%. The “Arthritis Scoring, mean” value [2, 20] was 2, the “Hind Paws Thickness, group mean” value [2, 20] was 2.7 mm and the “Percentage Change” value [2, 20] was 21%. For the same molecule, the “Arthritis Scoring, mean” value [2, 21] was 1, the “Percentage Change” value [2, 21] was 15% and the “Arthritis Scoring, mean” value [2, 22] was 1. For the same molecule, the “Hind Paws Thickness, group mean” value [2, 22] was 2.5 mm, the “Percentage Change” value [2, 22] was 13% and the “Arthritis Scoring, mean” value [2, 23] was 0. The “Hind Paws Thickness, group mean” value [2, 23] was 2.2 mm, the “Arthritis Scoring, mean” value [2, 24] was 0 and the “Hind Paws Thickness, group mean” value [2, 24] was 2.2 mm. The “Percentage Change” value [2, 24] was 0%, the “Arthritis Scoring, mean” value [2, 25] was 1 and the “Hind Paws Thickness, group mean” value [2, 25] was 2.4 mm. The “Percentage Change” value [2, 25] was 8%, the “Arthritis Scoring, mean” value [2, 26] was 2 and the “Hind Paws Thickness, group mean” value [2, 26] was 2.7 mm. For the same molecule, the “Percentage Change” value [2, 26] was 21%, the “Arthritis Scoring, mean” value [2, 27] was 2 and the “Hind Paws Thickness, group mean” value [2, 27] was 2.7 mm. For the same molecule, the “Percentage Change” value [2, 27] was 21%, the “Arthritis Scoring, mean” value ([2]; Compound A 25 mg/kg/day PO, Day 11) was 1 and the PDE1 % inhibition (bovine PDE1) was 30%. For the same molecule, the inhibition at 10 µM [3] was 17%, the IC50 [4] was 23 nM and 0.011 µg/mL and the IC50 [5] was 30 nM and 0.014 µg/mL. It also gave an inhibition at 0.1 mg/kg ([6]; 2 h, 0.1 mg/kg p.o., two hours prior to LPS, n=2, read-out: inhibition of mouse LPS-induced serum TNF-α levels) of 3%, an inhibition at 1 mg/kg ([6]; 2 h, 1 mg/kg p.o., two hours prior to LPS, n=2, read-out: inhibition of mouse LPS-induced serum TNF-α levels) of 83% and an ED50 ([6]; read-out: Mouse LPS-induced serum TNF-α inhibition ED50) of 0.1 to 1 mg/kg.
